In the supplement of paper PMC10307832:

Assays:
Assay in all cases: relative viability (nuclei count vs DMSO), 5 days (fraction); higher = more cells survive
BI-D1870 + Crizotinib = compound: CC(C)CCN1c2nc(Nc3cc(F)c(O)c(F)c3)ncc2N(C)C(=O)C1C [BI-D1870] + C[C@@H](Oc1cc(-c2cnn(C3CCNCC3)c2)cnc1N)c1c(Cl)ccc(F)c1Cl [Crizotinib] (partner 1 µM)
Summary of the method: (§1)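 After 5 days of treatment, lung cancer cells in 1536-well plates were fixed and stained in a single step (final 0.05% Triton X-100, 1% formaldehyde, 1 ug/ml Hoechst) and their nuclei counted on 4× images. Treatment had been applied by pin tool the day after seeding as one drug alone or as a fixed anchor-drug dose with five library-drug doses (not always all listed) in √10 steps. Relative viability is the nuclei count of treated wells divided by that of vehicle wells, and values are medians of duplicate plates.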

BI-D1870 + Decitabine = compound: CC(C)CCN1c2nc(Nc3cc(F)c(O)c(F)c3)ncc2N(C)C(=O)C1C [BI-D1870] + Nc1ncn([C@H]2C[C@H](O)[C@@H](CO)O2)c(=O)n1 [Decitabine] (partner 2 µM)
Summary of the method: as §1

Zebularine + Tozasertib = compound: O=c1ncccn1[C@@H]1O[C@H](CO)[C@@H](O)[C@H]1O [Zebularine] + Cc1cc(Nc2cc(N3CCN(C)CC3)nc(Sc3ccc(NC(=O)C4CC4)cc3)n2)n[nH]1 [Tozasertib] (partner 0.1 µM)
Summary of the method: as §1

Zebularine + Vorinostat = compound: O=c1ncccn1[C@@H]1O[C@H](CO)[C@@H](O)[C@H]1O [Zebularine] + O=C(CCCCCCC(=O)Nc1ccccc1)NO [Vorinostat] (partner 1 µM)
Summary of the method: as §1

Cell Line | relative viability (BI-D1870 + Crizotinib; first compound 0.04 µM) | relative viability (BI-D1870 + Crizotinib; first compound 0.1265 µM) | relative viability (BI-D1870 + Crizotinib; first compound 0.4 µM) | relative viability (BI-D1870 + Crizotinib; first compound 1.265 µM) | relative viability (BI-D1870 + Crizotinib; first compound 4 µM) | relative viability (BI-D1870 + Decitabine; first compound 0.04 µM) | relative viability (BI-D1870 + Decitabine; first compound 0.1265 µM) | relative viability (BI-D1870 + Decitabine; first compound 0.4 µM) | relative viability (BI-D1870 + Decitabine; first compound 1.265 µM) | relative viability (BI-D1870 + Decitabine; first compound 4 µM) | relative viability (Zebularine + Tozasertib; first compound 1 µM) | relative viability (Zebularine + Tozasertib; first compound 3.162 µM) | relative viability (Zebularine + Tozasertib; first compound 10 µM) | relative viability (Zebularine + Tozasertib; first compound 31.62 µM) | relative viability (Zebularine + Tozasertib; first compound 100 µM) | relative viability (Zebularine + Vorinostat; first compound 1 µM) | relative viability (Zebularine + Vorinostat; first compound 3.162 µM) | relative viability (Zebularine + Vorinostat; first compound 10 µM) | relative viability (Zebularine + Vorinostat; first compound 31.62 µM) | relative viability (Zebularine + Vorinostat; first compound 100 µM)
A-427 | 0.992 | 0.86 | 0.825 | 1.11 | 0.857 | 0.573 | 0.499 | 0.561 | 0.685 | 0.638 | 0.201 | 0.194 | 0.222 | 0.155 | 0.152 | 0.96 | 0.855 | 0.703 | 0.666 | 0.361
LCLC-97TM1 | 0.361 | 0.361 | 0.36 | 0.57 | 0.312 | 0.236 | 0.231 | 0.209 | 0.255 | 0.262 | 0.253 | 0.225 | 0.191 | 0.102 | 0.115 | 0.529 | 0.253 | 0.33 | 0.157 | 0.152
LCLC-103H | 1.18 | 0.889 | 0.868 | 1.1 | 1.03 | 0.706 | 0.588 | 0.723 | 0.804 | 0.678 | 0.448 | 0.43 | 0.402 | 0.471 | 0.355 | 0.812 | 0.697 | 0.706 | 0.77 | 0.75
PC-3 [JPC-3] | 1.01 | 0.898 | 1.05 | 1.05 | 0.97 | 0.867 | 0.867 | 0.849 | 0.944 | 0.728 | 0.963 | 0.924 | 0.485 | 0.668 | 0.473 | 1.01 | 0.874 | 0.785 | 0.737 | 0.658
BEN | 1.12 | 0.722 | 1.01 | 0.99 | 0.822 | 0.748 | 0.617 | 0.733 | 0.738 | 0.844 | 0.612 | 0.563 | 0.379 | 0.354 | 0.43 | 0.701 | 0.603 | 0.486 | 0.411 | 0.373
NCI-H1666 | 0.932 | 0.813 | 1.1 | 1.04 | 0.803 | 0.711 | 0.701 | 0.716 | 0.732 | 0.677 | 0.612 | 0.633 | 0.538 | 0.662 | 0.486 | 1.01 | 1.02 | 0.752 | 1.09 | 0.939
LC-2-ad | 0.51 | 0.454 | 0.394 | 0.544 | 0.434 | 0.834 | 0.72 | 0.842 | 0.893 | 0.791 | 0.413 | 0.427 | 0.347 | 0.422 | 0.396 | 0.759 | 0.691 | 0.527 | 0.644 | 0.324
SK-LU-1 | 1.14 | 0.81 | 0.88 | 0.859 | 0.315 | 0.653 | 0.607 | 0.652 | 0.604 | 0.536 | 0.378 | 0.34 | 0.254 | 0.302 | 0.29 | 0.891 | 0.725 | 0.557 | 0.555 | 0.487
ChaGo-K-1 | 1.19 | 1.09 | 1.08 | 1.06 | 0.994 | 0.527 | 0.468 | 0.506 | 0.519 | 0.511 | 0.22 | 0.208 | 0.211 | 0.172 | 0.195 | 0.767 | 0.648 | 0.442 | 0.274 | 0.252
COR-L 105 | 0.858 | 0.79 | 0.777 | 0.754 | 0.574 | 0.668 | 0.516 | 0.668 | 0.733 | 0.656 | 0.316 | 0.285 | 0.345 | 0.367 | 0.319 | 1.38 | 0.898 | 0.734 | 0.945 | 0.619
NCI-H1975 | 1.05 | 0.988 | 1.01 | 1.03 | 0.484 | 0.436 | 0.348 | 0.411 | 0.361 | 0.368 | 1.11 | 0.684 | 0.412 | 0.293 | 0.23 | 0.731 | 0.728 | 0.465 | 0.556 | 0.321
NCI-H1993 | 0.891 | 0.842 | 0.801 | 0.916 | 0.73 | 0.634 | 0.438 | 0.668 | 0.647 | 0.579 | 0.593 | 0.582 | 0.53 | 0.614 | 0.573 | 0.73 | 0.763 | 0.754 | 0.741 | 0.559
RERF-LC-KJ | 0.892 | 0.853 | 0.847 | 0.857 | 0.792 | 0.661 | 0.671 | 0.675 | 0.745 | 0.519 | 0.533 | 0.433 | 0.458 | 0.553 | 0.473 | 0.734 | 0.738 | 0.633 | 0.762 | 0.683
NCI-H23 | 0.527 | 0.424 | 0.509 | 0.667 | 0.559 | 0.336 | 0.329 | 0.306 | 0.333 | 0.242 | 0.36 | 0.382 | 0.234 | 0.462 | 0.284 | 0.661 | 0.587 |  | 0.542 | 0.509
HCC-366 | 0.694 | 0.485 | 0.471 | 0.933 | 0.378 | 0.337 | 0.306 | 0.322 | 0.469 | 0.414 | 0.169 | 0.112 | 0.182 | 0.132 | 0.0608 | 0.488 | 0.372 | 0.26 | 0.343 | 0.184
EMC-BAC-2 | 0.847 | 0.739 | 0.726 | 0.853 | 0.835 | 1.02 | 0.985 | 1.01 | 1.27 | 1.02 | 0.326 | 0.313 | 0.266 | 0.28 | 0.313 | 0.521 | 0.481 | 0.495 | 0.42 | 0.481
